Activity calls are given as the source filed them.
Columns and labels:
[1] = target: Cystic fibrosis transmembrane conductance regulator/Golgi-associated PDZ and coiled-coil motif-containing protein (Homo sapiens, UniProt P13569+Q9HD26); assay: CAL PDZ peptide-binding inhibitors, dose response, biochemical, fluorescence polarization, Cerulean-tagged CAL PDZ, cherry-picks (AID 504773)
Fibrinogen beta chain [2] = target: T1, Fibrinogen beta chain (Homo sapiens, UniProt P02675); assay: Fluorescence polarization-based biochemical high throughput dose response assay to identify inhibitors that disrupt the binding of a cyclic peptide (Tn7) to the fibrin proteolytic product D-Dimer and fragment E complex [DD(E )].
[3] = target: T2, Zinc finger protein mex-5 (Caenorhabditis elegans, UniProt Q9XUB2); assay: MEX-5/TCR-2 RNA interaction inhibitors, dose response, biochemical, C. elegans, fluorescence polarization (AID 1960)
T2 sequence (Q9XUB2 whole entry): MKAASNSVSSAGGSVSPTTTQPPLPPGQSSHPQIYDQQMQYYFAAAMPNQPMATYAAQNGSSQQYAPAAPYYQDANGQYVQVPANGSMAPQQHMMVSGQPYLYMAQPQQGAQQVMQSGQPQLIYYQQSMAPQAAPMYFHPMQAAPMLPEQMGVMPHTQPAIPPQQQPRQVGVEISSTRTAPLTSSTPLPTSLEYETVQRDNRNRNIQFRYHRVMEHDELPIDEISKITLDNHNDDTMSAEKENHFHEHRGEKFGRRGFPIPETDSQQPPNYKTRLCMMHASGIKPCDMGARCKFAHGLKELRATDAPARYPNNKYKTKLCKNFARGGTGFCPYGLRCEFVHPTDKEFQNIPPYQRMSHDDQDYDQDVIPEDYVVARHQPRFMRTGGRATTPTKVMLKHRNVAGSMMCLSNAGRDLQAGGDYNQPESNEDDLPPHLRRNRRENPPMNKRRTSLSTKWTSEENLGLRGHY

Fibrinogen beta chain [4] = target: T1, Fibrinogen beta chain; assay: Fluorescence polarization-based biochemical high throughput dose response assay to identify inhibitors that disrupt the binding of a cyclic peptide (Tn6) to the fibrin proteolytic product D-Dimer and fragment E complex [DD(E )].
[5] = target: T3, Long-chain-fatty-acid--AMP ligase FadD28 (Mycobacterium tuberculosis, UniProt P9WQ59); assay: Fluorescence polarization aasay to screen for inhibitors that compete for the binding of FadD28 to a bisubstrate Measured in Biochemical System Using Plate Reader - 2147-01_Inhibitor_Dose_CherryPick_Activity.; format: functional, Mycobacterium tuberculosis H37Rv
T3 sequence (P9WQ59 whole entry): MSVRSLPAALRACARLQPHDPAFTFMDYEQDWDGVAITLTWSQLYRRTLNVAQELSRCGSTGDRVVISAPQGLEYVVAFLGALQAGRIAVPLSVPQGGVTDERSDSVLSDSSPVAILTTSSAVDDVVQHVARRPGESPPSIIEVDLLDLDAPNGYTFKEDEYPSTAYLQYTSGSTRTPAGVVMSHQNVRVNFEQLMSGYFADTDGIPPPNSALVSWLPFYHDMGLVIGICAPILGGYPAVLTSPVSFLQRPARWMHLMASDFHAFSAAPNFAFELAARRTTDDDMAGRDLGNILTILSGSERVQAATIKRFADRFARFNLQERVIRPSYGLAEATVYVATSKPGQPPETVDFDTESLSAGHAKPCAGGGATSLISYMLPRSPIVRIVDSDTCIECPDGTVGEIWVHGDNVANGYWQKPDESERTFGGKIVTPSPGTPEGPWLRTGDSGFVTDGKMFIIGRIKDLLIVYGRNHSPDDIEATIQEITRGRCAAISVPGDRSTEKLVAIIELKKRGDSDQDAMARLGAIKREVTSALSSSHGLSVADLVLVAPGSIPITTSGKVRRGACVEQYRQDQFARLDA

[6] = target: T4, RNA-binding protein pos-1 (Caenorhabditis elegans, UniProt G5EF15); assay: inhibitors of POS-1/mex-3 RNA binding, dose response, biochemical, fluorescence polarization (AID 1964);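 further: purified POS-1 fused to maltose binding protein made in E. coli; potency of compounds blocking POS-1 binding to fluorescent RNA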
T4 sequence (G5EF15 whole entry): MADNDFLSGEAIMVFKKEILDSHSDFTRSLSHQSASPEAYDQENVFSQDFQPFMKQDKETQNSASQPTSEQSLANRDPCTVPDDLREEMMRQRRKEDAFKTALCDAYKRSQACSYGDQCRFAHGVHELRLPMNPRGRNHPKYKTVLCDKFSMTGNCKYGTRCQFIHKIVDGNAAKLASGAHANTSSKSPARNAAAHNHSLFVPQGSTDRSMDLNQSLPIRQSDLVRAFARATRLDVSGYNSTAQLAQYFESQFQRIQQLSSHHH

Protein Rev = Protein Rev (Human immunodeficiency virus type 1 group M subtype B (isolate HXB2)(HIV-1), UniProt P04618); assay: inhibitors of Rev binding to RRE RNA, dose response, biochemical, fluorescence polarization, HIV-1 (AID 434976); set-up: species or system Human immunodeficiency virus 1
[7] = target: Female germline-specific tumor suppressor gld-1 (Caenorhabditis elegans, UniProt Q17339); assay: inhibitors of GLD-1 binding to TGE RNA, dose response, biochemical, fluorescence polarization, C. elegans (AID 2802);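 further: fluorescence polarization of labeled TGE RNA bound by purified gld-1 protein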
Protein S100-A4 = Protein S100-A4 (Homo sapiens, UniProt P26447); assay: S100A4-myosin IIA binding inhibitor potency, dose response, biochemical, fluorescence polarization, cherry-picked hits (AID 687001); format: functional
[8] = target: T5, Histone-lysine N-methyltransferase NSD2 (Homo sapiens, UniProt O96028); format: biochemical
T5 sequence (O96028 whole entry): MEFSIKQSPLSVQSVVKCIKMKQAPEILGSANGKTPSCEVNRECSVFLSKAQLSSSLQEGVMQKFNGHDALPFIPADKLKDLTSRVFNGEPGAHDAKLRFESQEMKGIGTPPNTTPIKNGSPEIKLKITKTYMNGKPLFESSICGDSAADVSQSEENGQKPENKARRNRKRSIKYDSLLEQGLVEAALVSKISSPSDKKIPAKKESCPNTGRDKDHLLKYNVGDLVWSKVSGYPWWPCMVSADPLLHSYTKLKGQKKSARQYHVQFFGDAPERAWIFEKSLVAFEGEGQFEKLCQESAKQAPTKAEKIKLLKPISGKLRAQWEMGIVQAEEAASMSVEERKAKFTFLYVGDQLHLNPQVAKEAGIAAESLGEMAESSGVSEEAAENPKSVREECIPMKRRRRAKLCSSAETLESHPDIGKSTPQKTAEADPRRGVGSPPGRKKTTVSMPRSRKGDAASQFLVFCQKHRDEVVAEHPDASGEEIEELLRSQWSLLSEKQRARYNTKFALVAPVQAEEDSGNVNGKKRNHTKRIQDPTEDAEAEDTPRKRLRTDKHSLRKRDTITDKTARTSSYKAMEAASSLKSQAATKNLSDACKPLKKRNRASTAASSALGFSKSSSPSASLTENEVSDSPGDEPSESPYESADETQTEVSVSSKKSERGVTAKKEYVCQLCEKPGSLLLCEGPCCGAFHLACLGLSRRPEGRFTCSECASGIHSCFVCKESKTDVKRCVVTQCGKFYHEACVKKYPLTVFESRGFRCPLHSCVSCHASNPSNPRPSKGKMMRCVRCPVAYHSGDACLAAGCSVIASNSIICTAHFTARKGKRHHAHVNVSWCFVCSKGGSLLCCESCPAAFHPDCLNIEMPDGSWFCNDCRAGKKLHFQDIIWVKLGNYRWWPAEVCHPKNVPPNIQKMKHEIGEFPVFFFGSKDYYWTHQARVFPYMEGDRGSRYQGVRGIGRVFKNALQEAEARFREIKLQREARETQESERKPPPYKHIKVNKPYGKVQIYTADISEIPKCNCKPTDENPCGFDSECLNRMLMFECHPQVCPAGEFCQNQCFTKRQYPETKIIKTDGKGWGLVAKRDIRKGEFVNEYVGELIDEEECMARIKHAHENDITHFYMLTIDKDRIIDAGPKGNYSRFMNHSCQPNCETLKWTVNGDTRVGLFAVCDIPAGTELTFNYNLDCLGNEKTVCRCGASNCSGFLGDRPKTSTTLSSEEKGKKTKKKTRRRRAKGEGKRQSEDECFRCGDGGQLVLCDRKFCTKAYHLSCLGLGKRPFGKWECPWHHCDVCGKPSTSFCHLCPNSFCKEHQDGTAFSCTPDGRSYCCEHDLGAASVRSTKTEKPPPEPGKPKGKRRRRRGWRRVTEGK

T1 sequence (P02675 whole entry, the tested form may be a part): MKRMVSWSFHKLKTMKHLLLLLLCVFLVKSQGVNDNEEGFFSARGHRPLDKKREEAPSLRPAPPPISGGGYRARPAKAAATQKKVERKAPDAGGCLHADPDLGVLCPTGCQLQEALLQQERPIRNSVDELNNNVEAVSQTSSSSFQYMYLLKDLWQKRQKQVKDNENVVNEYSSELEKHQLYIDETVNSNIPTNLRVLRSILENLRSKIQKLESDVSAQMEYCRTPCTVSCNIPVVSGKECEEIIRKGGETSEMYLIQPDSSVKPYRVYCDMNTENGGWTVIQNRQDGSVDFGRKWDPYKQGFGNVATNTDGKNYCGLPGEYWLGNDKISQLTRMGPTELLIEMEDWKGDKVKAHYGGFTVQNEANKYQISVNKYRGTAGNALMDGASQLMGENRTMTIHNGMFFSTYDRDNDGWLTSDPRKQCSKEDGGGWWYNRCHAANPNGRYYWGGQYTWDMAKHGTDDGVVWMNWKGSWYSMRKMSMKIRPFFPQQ
Sequence of Protein Rev (P04618 whole entry): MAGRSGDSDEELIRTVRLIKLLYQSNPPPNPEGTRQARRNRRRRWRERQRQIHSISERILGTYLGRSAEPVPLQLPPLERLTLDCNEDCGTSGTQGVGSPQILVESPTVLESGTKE
Sequence of Cystic fibrosis transmembrane conductance regulator/Golgi-associated PDZ and coiled-coil motif-containing protein (P13569 whole entry, other chains not shown, the tested form may be a part): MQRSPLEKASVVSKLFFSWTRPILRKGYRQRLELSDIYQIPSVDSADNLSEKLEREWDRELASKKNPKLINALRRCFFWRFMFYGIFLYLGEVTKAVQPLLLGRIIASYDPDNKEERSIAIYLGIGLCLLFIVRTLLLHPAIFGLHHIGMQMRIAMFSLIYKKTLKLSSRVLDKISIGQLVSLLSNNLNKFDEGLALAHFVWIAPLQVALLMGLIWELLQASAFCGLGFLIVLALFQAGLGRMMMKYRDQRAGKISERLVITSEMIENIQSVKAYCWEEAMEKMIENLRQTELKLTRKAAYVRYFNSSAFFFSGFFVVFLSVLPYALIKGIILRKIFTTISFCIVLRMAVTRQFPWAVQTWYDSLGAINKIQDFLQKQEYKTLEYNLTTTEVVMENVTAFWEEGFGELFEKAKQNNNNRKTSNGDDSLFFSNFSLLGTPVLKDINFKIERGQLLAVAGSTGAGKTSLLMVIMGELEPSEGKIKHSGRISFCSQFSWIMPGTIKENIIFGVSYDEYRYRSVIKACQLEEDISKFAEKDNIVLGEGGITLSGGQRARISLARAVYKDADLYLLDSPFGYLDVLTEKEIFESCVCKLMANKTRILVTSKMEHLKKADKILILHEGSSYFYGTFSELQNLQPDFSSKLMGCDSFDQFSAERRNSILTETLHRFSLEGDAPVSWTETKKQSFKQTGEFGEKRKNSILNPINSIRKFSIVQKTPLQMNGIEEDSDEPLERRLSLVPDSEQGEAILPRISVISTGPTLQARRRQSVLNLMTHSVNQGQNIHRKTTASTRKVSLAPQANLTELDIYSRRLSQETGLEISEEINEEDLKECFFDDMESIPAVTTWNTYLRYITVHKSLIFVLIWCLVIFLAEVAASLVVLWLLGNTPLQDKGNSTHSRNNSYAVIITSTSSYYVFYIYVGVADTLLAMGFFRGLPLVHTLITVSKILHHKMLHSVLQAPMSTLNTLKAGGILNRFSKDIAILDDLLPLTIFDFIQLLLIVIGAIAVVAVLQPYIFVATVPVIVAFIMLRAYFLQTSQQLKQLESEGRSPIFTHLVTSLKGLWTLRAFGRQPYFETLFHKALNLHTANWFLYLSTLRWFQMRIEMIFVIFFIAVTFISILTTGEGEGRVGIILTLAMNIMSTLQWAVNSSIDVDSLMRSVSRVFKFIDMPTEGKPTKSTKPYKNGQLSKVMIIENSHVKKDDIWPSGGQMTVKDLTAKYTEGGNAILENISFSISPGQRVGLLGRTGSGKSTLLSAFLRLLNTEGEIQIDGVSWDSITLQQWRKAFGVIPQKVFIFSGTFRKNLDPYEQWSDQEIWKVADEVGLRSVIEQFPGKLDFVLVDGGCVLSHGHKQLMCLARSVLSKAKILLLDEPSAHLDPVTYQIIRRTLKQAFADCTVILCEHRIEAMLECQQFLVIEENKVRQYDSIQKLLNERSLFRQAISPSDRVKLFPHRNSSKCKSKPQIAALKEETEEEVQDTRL
Sequence of Female germline-specific tumor suppressor gld-1 (Q17339 whole entry): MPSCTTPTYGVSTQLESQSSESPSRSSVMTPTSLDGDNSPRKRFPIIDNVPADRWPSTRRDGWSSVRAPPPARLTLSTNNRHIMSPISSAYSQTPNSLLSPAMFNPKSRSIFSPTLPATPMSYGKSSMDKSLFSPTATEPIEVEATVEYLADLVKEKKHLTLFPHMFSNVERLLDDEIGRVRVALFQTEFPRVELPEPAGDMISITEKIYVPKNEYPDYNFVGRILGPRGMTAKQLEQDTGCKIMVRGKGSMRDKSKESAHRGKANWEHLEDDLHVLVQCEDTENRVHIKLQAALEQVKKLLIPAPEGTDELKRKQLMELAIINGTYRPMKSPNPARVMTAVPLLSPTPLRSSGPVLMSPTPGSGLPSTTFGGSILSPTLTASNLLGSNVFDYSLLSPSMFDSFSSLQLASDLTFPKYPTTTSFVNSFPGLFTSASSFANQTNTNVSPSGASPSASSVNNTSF
Sequence of Protein S100-A4 (P26447 whole entry): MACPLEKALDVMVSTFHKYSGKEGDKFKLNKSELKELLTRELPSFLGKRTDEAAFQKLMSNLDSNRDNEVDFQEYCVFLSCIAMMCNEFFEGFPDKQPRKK

Compound | AC50 [1] | IC50 (Fibrinogen beta chain [2]) | EC50 [3] | IC50 (Fibrinogen beta chain [4]) | AC50 [5] | EC50 [6] | IC50 (Protein Rev) | IC50 [7] | AC50 (Protein S100-A4) | AC50 [8]
Cc1sc(NC(=O)c2ccco2)c(C(Nc2ccccn2)c2ccccc2)c1C (stereo not given) | 60.1 µM (active) | – | – | – | – | – | – | – | – | –
Cn1c(=O)cc2c3c(c(N4CCCCC4)ccc31)C(=O)c1ccccc1-2 | – | > 83.3 µM (inactive) | 25.9 µM (active) | > 27.8 µM (inactive) | 11.8 µM (active) | > 300 µM (inconclusive) | 14.2 µM (not active) | 4.96 µM (active) | 1.72 µM (active) | 12.3 µM (active)
